The numbers were not newly measured in patent publication US20030109512A1, “Use of 4-androstenediol and 4-androstenediol in a transdermal formulation to increase testosterone levels in humans” (priority 2001, published 2003), which cites them from elsewhere.

For the data set, the system named is estrogen levels. The settings on record: some studies indicate.

For `C[C@]12CCC(=O)C=C1CC[C@@H]1[C@@H]2CC[C@]2(C)C(=O)CC[C@@H]12` [androstenedione], the “effect on estrogen levels” value was “causes elevation of estrogen levels”.
